From the supplement of paper PMC8633005

Experiments:
Experiment in all cases: drug sensitivity score (DSS) (DSS (unitless, 0-50 scale)); higher = more sensitive (stronger viability inhibition); extreme values may be limits of the assay
Details in all cases: 72 h; culture: 2D
[1] = tested on: Bowes
Summary of the method: (§1)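 Drug sensitivity scores, modified area-under-curve measures, were derived from dose-response curves fitted in the in-house Breeze software. The curves came from melanoma cell lines and patient-derived melanoma cultures (1000–1500 cells per well) grown in 2D in 384-well plates holding a 527-compound oncology library. Each compound was dissolved in DMSO or water and tested at five concentrations across a 10,000-fold range. Viability was read by CellTiter-Glo luminescence after 72 h at 37 °C.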

[2] = tested on: FM-MEL-3
Summary of the method: as §1

[3] = tested on: WM165
Summary of the method: as §1

[4] = tested on: FM-MEL-2
Summary of the method: as §1

[5] = tested on: FM-MEL-6
Summary of the method: as §1

[6] = tested on: WM852
Summary of the method: as §1

[7] = tested on: SK-MEL-2
Summary of the method: as §1

[8] = tested on: SK-MEL-28
Summary of the method: as §1

SMILES	drug sensitivity score [1]	drug sensitivity score [2]	drug sensitivity score [3]	drug sensitivity score [4]	drug sensitivity score [5]	drug sensitivity score [6]	drug sensitivity score [7]	drug sensitivity score [8]
CN1CCN(c2nc(C3=C(c4c[nH]c5ccccc45)C(=O)NC3=O)c3ccccc3n2)CC1 [Sotrastaurin]	0	0.3	0	3.2	3.7	0	0	0
CCn1c(-c2nonc2N)nc2cnc(Oc3cccc(NC(=O)c4ccc(OCCN5CCOCC5)cc4)c3)cc21	0	4.3	5.2	2.6	0.3	4.6	0	1.1
O=C(Nc1cc(Oc2cc(F)c(NC(=O)C3(C(=O)Nc4ccc(F)cc4)CC3)cc2F)ccn1)C1CC1 [Altiratinib]	6.4	9	5	6.2	7.7	6.1	0	0
COc1cc2c(N3CCN(C(=O)Nc4ccc(OC(C)C)cc4)CC3)ncnc2cc1OCCCN1CCCCC1 [Tandutinib]	0	0	0	0	0	0	0	0
C[C@]12CC[C@@H]3c4ccc(O)cc4C[C@@H](CCCCCCCCC[S+]([O-])CCCC(F)(F)C(F)(F)F)[C@H]3[C@@H]1CC[C@@H]2O (stereo partly drawn) [Fulvestrant]	0	0	0	0	0	0	0	0
CCS(=O)(=O)N1CC(CC#N)(n2cc(-c3ncnc4[nH]ccc34)cn2)C1 [Baricitinib]	0	0	0	0	0	0	0	0
NS(=O)(=O)NCCNc1nonc1/C(=N/O)Nc1ccc(F)c(Br)c1 [Epacadostat]	0	1	0	0.5	0.5	0.7	0	0
O=C(Nc1ccc(OC(F)(F)Cl)cc1)c1cnc(N2CC[C@@H](O)C2)c(-c2cc[nH]n2)c1 [Asciminib]	0	0.1	0	0.6	0	0.3	0	0
Nc1ncnc2c1nc(Cl)n2[C@@H]1O[C@H](CO)[C@@H](O)[C@H]1O [8-chloro-adenosine]	5.2	3.3	14.8	0.9	7.5	4.6	7.7	5.1
CNCc1ccc(-c2[nH]c3cc(F)cc4c3c2CCNC4=O)cc1 [Rucaparib]	0.6	0.5	3.8	0.8	0.7	0	0	0
CCNC(=O)c1noc(-c2cc(C(C)C)c(O)cc2O)c1-c1ccc(CN2CCOCC2)cc1 [Luminespib]	15.2	21.4	20.3	10.7	8.1	9.7	9.3	9.2
CCN1CCN(Cc2ccc(Nc3ncc(F)c(-c4cc(F)c5nc(C)n(C(C)C)c5c4)n3)nc2)CC1 [Abemaciclib]	9.6	7.2	6.6	4	0	5.3	0	8.7
CCCCCCCCCCCCCCCCOP(=O)([O-])OCC[N+](C)(C)C [Miltefosine]	5.9	6	6.2	0.4	1.2	2	2.1	1.8
CO[C@H]1C[C@@H]2CC[C@@H](C)[C@@](O)(O2)C(=O)C(=O)N2CCCC[C@H]2C(=O)O[C@H]([C@H](C)C[C@@H]2CC[C@@H](OP(C)(C)=O)[C@H](OC)C2)CC(=O)[C@H](C)/C=C(\C)[C@@H](O)[C@@H](OC)C(=O)[C@H](C)C[C@H](C)/C=C/C=C/C=C/1C [Ridaforolimus]	0	0	7.6	0.9	2.7	0	0	3.8
Cc1cc(F)c(C(=O)Nc2cccc(-c3nncn3C(C)C)n2)cc1-n1cnc(C2CC2)c1 [Selonsertib]	0	0	0	0	0	0	0	0
Cc1ccc(F)c(NC(=O)Nc2ccc(-c3cccc4[nH]nc(N)c34)cc2)c1 [Linifanib]	2.2	0	0	0.1	0	0	0	0
